# Measured values reported in US20250186386A1, “METHODS OF REDUCING THE NEED FOR PERIPHERAL ARTERIAL REVASCULARIZATION IN A STATIN-TREATED SUBJECT” (AMARIN PHARMACEUTICALS IRELAND LIMITED, priority 2018, published 2025).
# Where two headings read alike, the source gives them in different places.
# What was measured:
# [1] = system: hypertriglyceridemic patients with cardiovascular disease or at high risk for cardiovascular disease, on statin therapy; assay type: in vivo, human
# Description: The following study, also referred to as the REDUCE-IT clinical trial, was a large cardiovascular (CV) outcome trial designed to assess CV risk reduction benefit of AMR101 treatment (commercially known as VASCEPA®) versus placebo on the 5-point primary composite endpoint: CV death, non-fatal stroke, non-fatal myocardial infarction (MI), coronary revascularizations, or unstable angina requiring hospitalization.
# A multi-center, prospective, randomized, double-blind, placebo-controlled, parallel-group study was performed to evaluate the effect of AMR101 (4 g per day) on cardiovascular health and mortality in hypertriglyceridemic patients with cardiovascular disease or at high risk for cardiovascular disease. The intended expanded indication of the study was treatment with AMR101 as an add-on to statin therapy to reduce the risk of cardiovascular events in patients with clinical cardiovascular disease or with multiple risk factors for cardiovascular disease.
# The primary objective of this study was, in patients at LDL-C goal while on statin therapy, with established cardiovascular disease (CVD) or at high risk for CVD, and hypertriglyceridemia (e.g., fasting triglycerides (TG)≥200 mg/dL and <500 mg/dL), to evaluate the effect of AMR101 4 g daily on time from randomization to first occurrence of any component of the composite of the following major CV events: CV death; nonfatal MI; (including silent MI; electrocardiograms (ECGs) were performed annually for the detection of silent MIs); nonfatal stroke; coronary revascularization; and unstable angina determined to be caused by myocardial ischemia by invasive/non-invasive testing and requiring emergent hospitalization.
# The key secondary objective of this study was to evaluate the effect of AMR101 4 g daily on the time from randomization to the first occurrence of the composite of following major CV events: CV death, nonfatal MI (including silent MI), and nonfatal stroke.
# Other secondary objectives for this study were to evaluate the effect of therapy on time from randomization to the first occurrence of the following individual or composite endpoints: composite of CV death or nonfatal MI (including silent MI); fatal or nonfatal MI (including silent MI); non-elective coronary revascularization represented as the composite of emergent or urgent classifications; CV death; unstable angina determined to be caused by myocardial ischemia by invasive/non-invasive testing and requiring emergent hospitalization; fatal or nonfatal stroke; composite of total mortality, nonfatal MI (including silent MI), or nonfatal stroke; and total mortality.
# Primary Efficacy Endpoint: The primary efficacy endpoint was time from randomization to the first occurrence of the composite of the following clinical events: CV death; nonfatal MI (including silent MI; ECGs were performed annually for the detection of silent MIs); nonfatal stroke; coronary revascularization; and unstable angina determined to be caused by myocardial ischemia by invasive/non-invasive testing and requiring emergent hospitalization. The first occurrence of any of these major adverse vascular events during the follow-up period of the study were included in the incidence.
# Secondary Efficacy Endpoints: The key secondary efficacy endpoint was the time from randomization to the first occurrence of the composite of CV death, nonfatal MI (including silent MI), or nonfatal stroke. […]
# [2] = system: Lipid, lipoprotein, and inflammatory markers (TG, non-HDL-C, LDL-C, HDL-C, Apo B, hsCRP); assay: REDUCE-IT: fasting lipid profile and biomarker assays (lipid, lipoprotein, and inflammatory markers) over time; assay type: in vivo, human
# Description: Fasting Lipid Profile: The fasting lipid panel included: TG, TC, LDL-C, HDL-C, non-HDL-C, and VLDL-C. At all visits, LDL-C was calculated using the Friedewald equation. At Visit 1 and Visit 1.1 direct LDL-C were used if at the same visit TG>400 mg/dL (4.52 mmol/L). These LDL-C values were used for the evaluation of the LDL-C inclusion criterion (LDL-C qualifying measurements for randomization) and for the assessment of changes in the statin therapy when LDL-C was not at goal. […] In addition, irrespective of the TG levels, at Visit 2 (0 Months of Follow-up, baseline) and at Visit 4 (12 Months of Follow-up), LDL-C were measured by preparative ultracentrifugation. These preparative ultracentrifugation LDL-C measurements were used in the statistical analysis including the calculation of the percent change from baseline (1 year versus baseline). Hopkins LDL-C was calculated for each visit.
# Biomarkers Assays: The biomarker assays included: hsCRP, Apo B and hsTnT.
# The fasting lipid panel was tested at Screening (Visit 1 or Visit 1.1), Randomization visit (Visit 2; Day 0), Visit 3 (Day 120; ˜4 Months) and all other follow-up visits including the last visit. For change from baseline to 1 year preparative ultracentrifugation measurements for LDL-C were analyzed, unless this value was missing. If the LDL-C preparative ultracentrifugation values were missing, then another LDL-C value was used, with prioritization of values obtained from LDL-C Direct measurements, followed by LDL-C derived by the Friedewald calculation (only for subjects with TG<400 mg/dL), and finally LDL-C derived using the calculation published by Hopkins University investigators (Martin S S, Blaha M J, Elshazly M B, et al. Comparison of a novel method vs the Friedewald equation for estimating low-density lipoprotein cholesterol levels from the standard lipid profile. JAMA. 2013; 310:2061-8). In addition, change from baseline to day 120 in LDL-C utilizing Friedewald's and Hopkins methods was analyzed, using the arithmetic mean of LDL-C obtained at Visit 2 (Day 0) and the preceding Visit 1 (or Visit 1.1). If one of these values was missing, the single available LDL-C value was used. LDL-C according to Hopkins was calculated at each visit.
# The randomization visit was considered Baseline. If a baseline value was not available from the randomization visit, then the latest screening value was used. For measurements of lipids, lipoproteins and inflammatory markers, the change and the percent change were summarized at each visit. Since these biomarkers are typically not normally distributed, the Wilcoxon rank-sum test was used for treatment comparisons of the percent change from baseline, and medians and quartiles were provided for each treatment group. The medians of the differences between the treatment groups and 95% CIs were estimated with the Hodges-Lehmann method. In addition, shift-tables were generated as appropriate.
# [3] = REDUCE-IT: serious bleeding treatment-emergent adverse events (adverse events of special interest); assay type: in vivo, human; conditions: Safety population
# Description: Adverse Events of Special Interest: Bleeding-related adverse events, glucose control (fasting blood glucose and HbA1c), and indicators of hepatic disorders (e.g., ALT or AST increases >3×ULN, total bilirubin increases of ≥2×ULN) were summarized separately and compared between treatment groups.
# (§1) Analysis of Safety: All analyses of safety were conducted on the safety population, which was defined as all randomized patients. The safety assessment was based on the frequency of adverse events, physical exams, vital signs and safety laboratory tests. AEs with new onset during the study between the initiation of study drug and 30 days after the last dose of study drug for each patient was considered treatment-emergent (TEAEs). This included any AE with onset prior to initiation of study drug and increased severity after the treatment initiation.
# This included overall incidence rates (regardless of severity and relationship to study drug), and incidence rates for moderate or severe adverse events. A summary of SAEs and adverse events leading to early discontinuation (for 30 days) were presented through data listings. Patients who restarted study drug were included in the summary of AEs leading to discontinuation. Safety laboratory tests and vital signs were summarized by post-treatment change from baseline for each of the parameters using descriptive statistics by treatment group. […]
# [4] = REDUCE-IT: treatment-emergent adverse events of the safety population
# Description: Specification of Variables and Procedures: Safety assessments included adverse events, clinical laboratory measurements (chemistry, hematology), 12-lead ECGs, vital signs (systolic and diastolic blood pressure, heart rate, respiratory rate, and body temperature), weight, waist circumference, and physical examinations as per Study Procedures in Table 1. […] All laboratory test results were evaluated by the investigator as to their clinical significance. Any observations at physical examinations or laboratory values considered by the investigator to be clinically significant were considered an adverse event.
# An adverse event can therefore be any unfavorable and/or unintended sign (including an abnormal laboratory finding), symptom, or disease temporally associated with the use of an investigational medication product, whether or not related to the investigational medication product. All adverse events, including observed or volunteered problems, complaints, or symptoms, were recorded on the appropriate CRF. Each adverse event was evaluated for duration, intensity, and causal relationship with the study medication or other factors.
# Serious Adverse Events: A serious adverse event (SAE) is defined as an adverse event that meets any of the following criteria: • Results in death; • Is life-threatening—The term “life-threatening” in the definition of “serious” refers to an event in which the patient was at risk of death at the time of the event. […] Important medical events that may not result in death, be life threatening, or require hospitalization were considered an SAE when, based upon appropriate medical judgment, they may have jeopardized the patient and may have required medical or surgical intervention to prevent one of the outcomes listed above.
# as §1
# This included overall incidence rates (regardless of severity and relationship to study drug), and incidence rates for moderate or severe adverse events. A summary of SAEs and adverse events leading to early discontinuation (for 30 days) were presented through data listings. Patients who restarted study drug were included in the summary of AEs leading to discontinuation. Safety laboratory tests and vital signs were summarized by post-treatment change from baseline for each of the parameters using descriptive statistics by treatment group. Those patients with significant laboratory abnormalities were identified in data listings. Additional safety parameters were summarized in data listings.
# In addition to the treatment-emergent adverse events analyses, analyses on all AEs (serious and non-serious) and all serious AEs were performed.
structure (smiles),measurement,setting,value
"CC/C=C\C/C=C\C/C=C\C/C=C\C/C=C\CCCC(=O)OCC [AMR101, icosapent ethyl]",Key secondary composite endpoint absolute between-group difference in the rate of the endpoint,[1]; 2 g twice daily vs placebo,3.6 percentage points
same,Primary composite endpoint absolute between-group difference in the rate of the endpoint,[1]; 2 g twice daily vs placebo,4.8 percentage points
same,"Cardiovascular death, % of patients","[1]; 4 g daily, ITT",4.3%
same,"Total mortality, % of patients","[1]; 4 g daily, ITT",6.7%
same,Amputation for PVD (%),[1]; ITT,(0.5%)
same,Cardiac Arrest (%),[1]; ITT,(0.5%)
same,Cardiac Arrhythmias Requiring Hospitalization of ≥24 Hours (%),[1]; ITT,(4.6%)
same,Carotid Revascularization (%),[1]; ITT,(0.8%)
same,Coronary Revascularization (%),[1]; ITT,(9.2%)
same,Elective Revascularization (%),[1]; ITT,(4.7%)
same,Emergent Revascularization (%),[1]; ITT,(1.0%)
same,Hemorrhagic Stroke (%),[1]; ITT,0.3%
same,Ischemic Stroke (%),[1]; ITT,(2.0%)
same,New Heart Failure (%),[1]; ITT,4.1%
same,New Heart Failure Requiring Hospitalization (%),[1]; ITT,(3.4%)
same,Salvage Revascularization (%),[1]; ITT,(0.0%)
same,Sudden Cardiac Death (%),[1]; ITT,(1.5%)
same,Transient Ischemic Attack (%),[1]; ITT,(1.6%)
same,Urgent Revascularization (%),[1]; ITT,(4.4%)
same,Hemorrhagic Stroke (%),"[1]; ITT, listed as Icosapent Ethyl",(0.3%)
same,New Heart Failure (%),"[1]; ITT, listed as Icosapent Ethyl",(4.1%)
same,"Atrial fibrillation or flutter requiring hospitalization (adjudicated tertiary endpoint), % of patients","[1]; human, in vivo",3.1%
same,New Onset of Diabetes (%),[1]; patients with diabetes at baseline excluded,(3.8%)
same,Composite of cardiovascular death or nonfatal myocardial infarction RRR,"[1]; vs placebo, 4 g per day",25%
same,"Composite of total mortality, nonfatal myocardial infarction, or nonfatal stroke reduction (RRR)","[1]; vs placebo, 4 g per day",23%
same,Key secondary composite endpoint relative risk reduction (RRR),"[1]; vs placebo, 4 g per day",26%
same,Primary composite endpoint relative risk reduction (RRR),"[1]; vs placebo, 4 g per day",25%
same,Reduction in heart attack,"[1]; vs placebo, 4 g per day",31%
same,Total mortality reduction (RRR),"[1]; vs placebo, 4 g per day",13%
same,Total mortality HR,"[1]; vs placebo, ITT",0.87
same,Primary composite endpoint number needed to treat (NNT),"[1]; vs placebo, median follow up 4.9 years",21
same,HDL-C Median Year 1,"[2]; Year 1, Table 18",39.0 mg/dL
same,LDL-C Median Year 1,"[2]; Year 1, Table 18",77.0 mg/dL
same,Non-HDL-C Median Year 1,"[2]; Year 1, Table 18",113.0 mg/dL
same,Triglycerides Median Year 1,"[2]; Year 1, Table 18",175.0 mg/dL
same,Triglycerides: median reduction from baseline greater than in the placebo group (Hodges-Lehmann),"[2]; baseline to one year, vs placebo",19.7%
same,"HDL-C Median Between Group Difference at Year 1, % Change from Baseline","[2]; vs placebo, Table 18",−6.3%
same,"HDL-C Median Between Group Difference at Year 1, Absolute Change from Baseline","[2]; vs placebo, Table 18",-2.5 mg/dL
same,"LDL-C Median Between Group Difference at Year 1, % Change from Baseline","[2]; vs placebo, Table 18",−6.6%
same,"LDL-C Median Between Group Difference at Year 1, Absolute Change from Baseline","[2]; vs placebo, Table 18",-5.0 mg/dL
same,"Non-HDL-C Median Between Group Difference at Year 1, Absolute Change from Baseline","[2]; vs placebo, Table 18",-15.5 mg/dL
same,"Triglycerides Median Between Group Difference at Year 1, % Change from Baseline","[2]; vs placebo, Table 18",−19.7%
same,"Triglycerides Median Between Group Difference at Year 1, Absolute Change from Baseline","[2]; vs placebo, Table 18",-44.5 mg/dL
same,"Serious gastrointestinal bleeding, rate",[3],1.5%
same,"Pneumonia (serious adverse event), rate",[4]; Safety population,2.6%
same,Rate of anemia (adverse event),[4]; Safety population,4.7%
same,Rate of atrial fibrillation (adverse event),[4]; Safety population,5.3%
same,Rate of diarrhea (adverse event),[4]; Safety population,9%
same,Rate of gastrointestinal adverse events,[4]; Safety population,33.0%
same,Rate of peripheral edema (adverse event),[4]; Safety population,6.5%
same,"Serious TEAE Leading to Death, %",[4]; […],(2.3%)
same,"Serious TEAE, %",[4]; […],(30.6%)
same,"Subjects with at Least One TEAE, %",[4]; […],(81.8%)
